TGI data for 9 compounds are collected here from PubChem BioAssay (NCI).

Test systems include BT-549 breast; CCRF-CEM leukemia; EKVX NSCLC; HCT-15 colon; HOP-92 NSCLC; HS 578T breast; LOX IMVI melanoma; MDA-N; MOLT-4 leukemia; NCI-H460 lung; RPMI-8226 leukemia; SF-539 CNS; SNB-19 CNS; UACC-257 melanoma; UO-31 renal.
Common to all, as to test: NCI tumour cell line growth inhibition, 48 h

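Cultured in 96-well plates, cells were exposed to test compound for 48 hours across five concentrations. At the TGI there is no net growth.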

`COP(=N[Si](C)(C)C)(OC)OC`: the TGI with BT-549 breast, in the test on CCRF-CEM leukemia, in the test on EKVX NSCLC, with HCT-15 colon, in the test with HOP-92 NSCLC and with HS 578T breast was more than 100 µM throughout. The TGI in the test on LOX IMVI melanoma, in the test on MDA-N, in the test on MOLT-4 leukemia, in the test with NCI-H460 lung, in the test with RPMI-8226 leukemia and with SF-539 CNS was more than 100 µM each time. The TGI with SNB-19 CNS, in the test on UACC-257 melanoma and in the test with UO-31 renal was more than 100 µM each time.
For `Cc1cc(Cl)ccc1NC(=O)/C(Cc1nc2ccc(C(=O)c3ccccc3)cc2[nH]c1=O)=N/NC(=O)c1ccncc1`, the TGI in the test on BT-549 breast, with CCRF-CEM leukemia, with EKVX NSCLC, with HCT-15 colon, in the test with HOP-92 NSCLC and in the test with HS 578T breast was more than 100 µM throughout. The TGI with LOX IMVI melanoma, with MDA-N, with MOLT-4 leukemia, in the test on NCI-H460 lung, in the test with RPMI-8226 leukemia and with SF-539 CNS was more than 100 µM in each case. Also, the TGI in the test with SNB-19 CNS, in the test with UACC-257 melanoma and in the test on UO-31 renal was more than 100 µM in each case.
With `COC(=O)C1=C(C(=O)OC)C2(c3ccccc3)c3ccccc3C(=O)C1N2C1CCCCC1` (stereo not given), the TGI in the test on BT-549 breast, in the test on CCRF-CEM leukemia, in the test with EKVX NSCLC, in the test on HCT-15 colon, in the test on HOP-92 NSCLC and in the test with HS 578T breast was more than 100 µM each time. The TGI is more than 100 µM in the test on LOX IMVI melanoma; more than 100 µM with MDA-N; more than 81.4 µM in the test on MOLT-4 leukemia; more than 100 µM in the test with NCI-H460 lung; 40.6 µM in the test with RPMI-8226 leukemia; more than 100 µM with SF-539 CNS. Besides, the TGI with SNB-19 CNS, in the test with UACC-257 melanoma and in the test on UO-31 renal was more than 100 µM throughout.
As to `NS(=O)(=O)c1ccc(NC(=S)/N=C/c2c(O)c3ccccc3[nH]c2=O)cc1`, the TGI in the test on BT-549 breast, in the test with CCRF-CEM leukemia, in the test with EKVX NSCLC, in the test with HCT-15 colon, with HOP-92 NSCLC and with HS 578T breast was more than 100 µM in each case. The TGI in the test on LOX IMVI melanoma, in the test with MDA-N, in the test on MOLT-4 leukemia, in the test on NCI-H460 lung, in the test with RPMI-8226 leukemia and in the test on SF-539 CNS was more than 100 µM in each case. For the same compound, the TGI with SNB-19 CNS, with UACC-257 melanoma and with UO-31 renal was more than 100 µM throughout.
Regarding `c1ccc2nc3c(nc2c1)sc1nc2ccccc2n13`, the TGI in the test with BT-549 breast, in the test on CCRF-CEM leukemia, in the test on EKVX NSCLC, with HCT-15 colon, with HOP-92 NSCLC and in the test with HS 578T breast was more than 100 µM in each case. Besides, the TGI in the test on LOX IMVI melanoma, in the test on MDA-N, in the test with MOLT-4 leukemia, in the test on NCI-H460 lung, in the test with RPMI-8226 leukemia and in the test with SF-539 CNS was more than 100 µM in each case. Moreover, the TGI with SNB-19 CNS, in the test on UACC-257 melanoma and with UO-31 renal was more than 100 µM throughout.
Regarding `Cc1cc2c(c(C=Nc3ccc(N(C)C)cc3)c1)OC1(C=C2)Oc2ccccc2C(=O)N1C` (stereo not given), the TGI in the test on BT-549 breast is 29.4 µM; in the test with CCRF-CEM leukemia, 17.5 µM; in the test on EKVX NSCLC, 27.1 µM; in the test with HCT-15 colon, 27.6 µM; in the test with HOP-92 NSCLC, 44.8 µM; in the test on HS 578T breast, more than 90.4 µM. In addition, the TGI with LOX IMVI melanoma worked out at 29.7 µM; in the test on MDA-N, 28.1 µM; in the test with MOLT-4 leukemia, 23.5 µM; in the test with NCI-H460 lung, 36.5 µM; with RPMI-8226 leukemia, 31.1 µM; in the test on SF-539 CNS, 28.2 µM. The TGI is 24.5 µM in the test with SNB-19 CNS, 28.1 µM in the test on UACC-257 melanoma and 23.2 µM in the test on UO-31 renal.
Turning to `CC(=O)O[C@H]1CC[C@@]2(C)C(=CC[C@H]3[C@@H]4C[C@H](N5CCN(C)CC5)[C@H](OC(C)=O)[C@@]4(C)CC[C@@H]32)C1`, the TGI with BT-549 breast was determined as 32.8 µM; in the test on CCRF-CEM leukemia, 16 µM; in the test on EKVX NSCLC it was 59.9 µM; with HCT-15 colon it was 26.6 µM; in the test with HOP-92 NSCLC it was 92.7 µM; with HS 578T breast it was 61.8 µM. For the same compound, the TGI came out at 7.83 µM with LOX IMVI melanoma; 26.5 µM in the test with MDA-N; 16.8 µM in the test with MOLT-4 leukemia; 49.4 µM with NCI-H460 lung; 14.7 µM in the test with RPMI-8226 leukemia; 13.7 µM in the test with SF-539 CNS. Further, the TGI with SNB-19 CNS is 58.9 µM; with UACC-257 melanoma, 17.3 µM; in the test on UO-31 renal, more than 90.9 µM.
`Nc1nc([O-])c([I+]c2ccccc2)c(=O)[nH]1`: the TGI with BT-549 breast, with CCRF-CEM leukemia, with EKVX NSCLC, in the test with HCT-15 colon, in the test with HOP-92 NSCLC and in the test with HS 578T breast was more than 100 µM in each case. The TGI with LOX IMVI melanoma, in the test on MDA-N, with MOLT-4 leukemia, in the test on NCI-H460 lung, in the test on RPMI-8226 leukemia and in the test on SF-539 CNS was more than 100 µM throughout. The TGI in the test on SNB-19 CNS, with UACC-257 melanoma and in the test on UO-31 renal was more than 100 µM in each case.
Regarding `COc1ccc(C[C@H]2NC[C@H](OC(C)=O)[C@H]2OC(C)=O)cc1`, the TGI in the test with BT-549 breast was 0.564 µM; in the test on CCRF-CEM leukemia it was 1.18 µM; with EKVX NSCLC, 0.606 µM; in the test on HCT-15 colon, 0.975 µM; in the test on HOP-92 NSCLC it was 0.356 µM; in the test with HS 578T breast it was 0.465 µM. Also, the TGI in the test on LOX IMVI melanoma was 0.331 µM; in the test with MDA-N, 0.732 µM; in the test with MOLT-4 leukemia, 1.98 µM; in the test with NCI-H460 lung it was 1.44 µM; in the test on RPMI-8226 leukemia it was 1.95 µM; in the test with SF-539 CNS, 10.4 µM. The TGI in the test on SNB-19 CNS was 0.446 µM; with UACC-257 melanoma, 2.98 µM; in the test on UO-31 renal, 0.371 µM.
